How the values were obtained:
[1] = Stability on melting and cooling (air; NMR, IR, HPLC comparison)
[2] = Stability of Form IV under grinding (powder XRD and FT-IR after grinding); conditions: ground in glass pestle and mortar for 15 min

chemical nature after heating ([1]; confirmed by NMR, IR, HPLC retention time and assay versus sample prepared per U.S. Pat. No. 4,879,288): does not also alter its chemical nature
oxidative degradation on melting and cooling ([1]; melting and cooling in air): no significant degradation
XRD pattern and FT-IR spectrum of the material after grinding [2]: identical to the form IV
SMILES: OCCOCCN1CCN(C2=Nc3ccccc3Sc3ccccc32)CC1 [Form IV]

— patent US20060223994A1, “Novel polymorph of Quetiapine fumarate and a process for its preparation” (Divi's Laboratories Limited, priority 2005, published 2006)
